Experiment [1] has as its system MV4:11 human cancer cell lines. As to the kind of experiment: Cellular viability / anti-proliferative activity, CellTiter-Glo, 5 day protocol. The format is cell-based. The note with it: Homo sapiens, MV4-11, 120 h, 5 day incubation. As to the method:
Anti-proliferative activity using MLL-harboring cell lines. MV-4-11 and K562 cells are grown in IMDM media supplemented with 10% FBS and 1% penicillin/streptomycin, Molm-13 cells are cultured in RPMI-1640 media supplemented with 10% FBS and 1% penicillin/streptomycin. Viability assays are performed by dispensing 200 cells at 7200 cells/mL into each well of an opaque 384-well plate and adding compounds at the indicated concentrations in a final volume of 32 μL and a final concentration of DMSO of 0.3% for all samples. A certain range of compound concentrations is made through a series of 2-fold dilutions starting 30 μM at the highest, total 22 dilutions. After a set incubation period, 5 day protocol, the viability of cells in each well is assessed using the CellTiter-Glo assay (Promega), read on a 96 Microplane Luminometer (Cytation 3, BioTek). Serial dilutions of each cell type are performed in all assays to generate standard curves and the final densities of cells are determined within the dynamic range of the instrument. GI50 values are calculated based on XLfit software (IDBS, Guildford, UK) with Sigmoidal Dose-Response Model. Each compound is tested in minimum of two replicates. Data are expressed as mean.
In general terms: Cellular ATP, detected with luciferase, serves as a proxy for viable cell number.

Experiment [2] addresses T1, WDR5 (Homo sapiens, UniProt P61964).
T1 construct: WDR5-His Tag (A23, residues 24-334) is expressed and purified in our lab; made in house
As to the kind of experiment: Time Resolved-Fluorescence Energy Transfer (TR-FRET) competition assay, displacement of 10mer-Thr-FAM probe from His-tagged WDR5. The class given is binding. The note with it: WDR5-His tag 2 nM, 10mer-Thr-FAM 150 nM, 60 minutes at room temperature. A digest of the protocol:
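Competitive TR-FRET using 2 nM His-tagged WDR5 (residues 24-334), 1 nM Tb-anti-His antibody and 150 nM 10mer-Thr-FAM probe; compounds in a 10-point, 5-fold series from 5 μM, ≤1% DMSO. Incubated 60 min at room temperature in PBS with 300 mM NaCl, 0.5 mM TCEP, 0.1% CHAPS, pH 7.2; 520/495 nm emission gave IC50, converted to Ki by the Wang equation.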
(In general: In TR-FRET formats the signal depends on donor and acceptor labels being close together.)

The mark [3] stands for this setting: MV4:11 cells, read-out: GI50 for representative compounds on cellular proliferation of MV4:11 human cancer cell lines.
[4] abbreviates: read-out: Ki for Exemplified Compounds for Inhibition of WDR5 by TR-FRET assay.

Where two headings read alike, the source gives them in different places.

`CCc1cc(OC)c2nncc(N3CCc4c(cc(Cn5ccnc5C)cc4-c4cn(C)nc4C(F)(F)F)C3=O)c2c1` [Example 14, 2-(6-Ethyl-8-methoxycinnolin-4-yl)-7-((2-methyl-1H-imidazol-1-yl)methyl)-5-(1-methyl-3-(trifluoromethyl)-1H-pyrazol-4-yl)-3,4-dihydroisoquinolin-1(2H)-one]: the GI50 in experiment [1] (setting [3]) is less than 20 nM. Besides, the Ki in experiment [2] (setting [4]) is less than 0.02 nM.
The like results for `CCc1cc2c(N3CCc4c(cc(Cn5ccnc5)cc4-c4cn(C)nc4C(F)(F)F)C3=O)ncnc2cc1OC` [Example 43, 7-((1H-Imidazol-1-yl)methyl)-2-(6-ethyl-7-methoxyquinazolin-4-yl)-5-(1-methyl-3-(trifluoromethyl)-1H-pyrazol-4-yl)-3,4-dihydroisoquinolin-1(2H)-one] were, in that order, less than 20 nM and less than 0.02 nM.
For the compound `COc1ccc2nccc(N3CCc4c(cc(Cn5ccnc5)cc4-c4cn(C)nc4C(F)(F)F)C3=O)c2n1` [Example 17, 7-((1H-Imidazol-1-yl)methyl)-2-(6-methoxy-1,5-naphthyridin-4-yl)-5-(1-methyl-3-(trifluoromethyl)-1H-pyrazol-4-yl)-3,4-dihydroisoquinolin-1(2H)-one], in experiment [1] (setting [3]), the GI50 stood at 362 nM. In experiment [2] (setting [4]), the Ki came to 0.03 nM.
`COc1cnc2cc(C)cc(N3CCc4c(cc(Cn5ccnc5C)cc4-c4cn(C)nc4C(F)(F)F)C3=O)c2c1` [Example 2, 2-(3-Methoxy-7-methylquinolin-5-yl)-7-((2-methyl-1H-imidazol-1-yl)methyl)-5-(1-methyl-3-(trifluoromethyl)-1H-pyrazol-4-yl)-3,4-dihydroisoquinolin-1(2H)-one]: the GI50 in experiment [1] (setting [3]) is less than 20 nM. Also, in experiment [2] (setting [4]), the Ki is less than 0.02 nM.
The like results for `CCc1cc2c(N3CCc4c(cc(Cn5ccnc5)cc4-c4cn(C)nc4C(F)(F)F)C3=O)ccnc2c(OCC(F)F)n1` [Example 39, 7-((1H-Imidazol-1-yl)methyl)-2-(8-(2,2-difluoroethoxy)-6-ethyl-1,7-naphthyridin-4-yl)-5-(1-methyl-3-(trifluoromethyl)-1H-pyrazol-4-yl)-3,4-dihydroisoquinolin-1(2H)-one] were, in that order, less than 20 nM and less than 0.02 nM.
The like results for `COc1cc(OC)c2ncnc(N3CCc4c(cc(Cn5ccnc5)cc4-c4cn(C)nc4C(F)(F)F)C3=O)c2c1` [Example 50, 7-((1H-Imidazol-1-yl)methyl)-2-(6,8-dimethoxyquinazolin-4-yl)-5-(1-methyl-3-(trifluoromethyl)-1H-pyrazol-4-yl)-3,4-dihydroisoquinolin-1(2H)-one] were, in that order, less than 20 nM and 0.022 nM.
Consider `COc1cc2nc(C3CCOCC3)nc(N3CCc4c(cc(Cn5ccnc5)cc4-c4cn(C)nc4C(F)(F)F)C3=O)c2cc1OC` [Example 67, 7-((1H-Imidazol-1-yl)methyl)-2-(6,7-dimethoxy-2-(tetrahydro-2H-pyran-4-yl)quinazolin-4-yl)-5-(1-methyl-3-(trifluoromethyl)-1H-pyrazol-4-yl)-3,4-dihydroisoquinolin-1(2H)-one], for which the GI50 in experiment [1] (setting [3]) is less than 20 nM. The Ki in experiment [2] (setting [4]) amounted to 0.025 nM.
The like results for `COc1cc2nc(C)nc(N3CCc4c(cc(Cn5ccnc5)cc4-c4cn(C)nc4C(F)(F)F)C3=O)c2cc1OC` [Example 15, 7-((1H-Imidazol-1-yl)methyl)-2-(6,7-dimethoxy-2-methylquinazolin-4-yl)-5-(1-methyl-3-(trifluoromethyl)-1H-pyrazol-4-yl)-3,4-dihydroisoquinolin-1(2H)-one] were, in that order, less than 20 nM and less than 0.02 nM.
The like results for `COc1cc2nc(C3CC3)nc(N3CCc4c(cc(Cn5ccnc5)cc4-c4cn(C)nc4C(F)(F)F)C3=O)c2cc1OC` [Example 64, 7-((1H-Imidazol-1-yl)methyl)-2-(2-cyclopropyl-6,7-dimethoxyquinazolin-4-yl)-5-(1-methyl-3-(trifluoromethyl)-1H-pyrazol-4-yl)-3,4-dihydroisoquinolin-1(2H)-one] were, in that order, less than 20 nM and less than 0.02 nM.
The like results for `CCc1cc2c(N3CCc4c(cc(Cn5ccnc5)cc4-c4cn(C)nc4C(F)(F)F)C3=O)ccnc2c(N2CCCC2)n1` [Example 34, 7-((1H-Imidazol-1-yl)methyl)-2-(6-ethyl-8-(pyrrolidin-1-yl)-1,7-naphthyridin-4-yl)-5-(1-methyl-3-(trifluoromethyl)-1H-pyrazol-4-yl)-3,4-dihydroisoquinolin-1(2H)-one] were, in that order, 75 nM and less than 0.02 nM.
`COc1cc2nc(N3CCOCC3)nc(N3CCc4c(cc(Cn5ccnc5)cc4-c4cn(C)nc4C(F)(F)F)C3=O)c2cc1OC` [Example 56, 7-((1H-Imidazol-1-yl)methyl)-2-(6,7-dimethoxy-2-morpholinoquinazolin-4-yl)-5-(1-methyl-3-(trifluoromethyl)-1H-pyrazol-4-yl)-3,4-dihydroisoquinolin-1(2H)-one]: the GI50 in experiment [1] (setting [3]) was less than 20 nM. The Ki in experiment [2] (setting [4]) is less than 0.02 nM.
The like results for `COc1cc2c(N3CCc4c(cc(Cn5ccnc5)cc4-c4cn(C)nc4C(F)(F)F)C3=O)ncnc2cc1F` [Example 32, 7-((1H-Imidazol-1-yl)methyl)-2-(7-fluoro-6-methoxyquinazolin-4-yl)-5-(l-methyl-3-(trifluoromethyl)-1H-pyrazol-4-yl)-3,4-dihydroisoquinolin-1(2H)-one] were, in that order, less than 20 nM and less than 0.02 nM.
For the compound `CCc1cc2c(N3CCc4c(cc(Cn5ccnc5)cc4-c4cn(C)nc4C(F)(F)F)C3=O)ccnc2c(NC)n1` [Example 9, 7-((1H-Imidazol-1-yl)methyl)-2-(6-ethyl-8-(methylamino)-1,7-naphthyridin-4-yl)-5-(1-methyl-3-(trifluoromethyl)-1H-pyrazol-4-yl)-3,4-dihydroisoquinolin-1(2H)-one], the GI50 in experiment [1] (setting [3]) amounted to 102 nM. The Ki in experiment [2] (setting [4]) was less than 0.02 nM.
Consider `COc1cc2nccc(N3CCc4c(cc(Cn5ccnc5)cc4-c4cn(C)nc4C(F)(F)F)C3=O)c2cc1OC` [Example 16, 7-((1H-Imidazol-1-yl)methyl)-2-(6,7-dimethoxyquinolin-4-yl)-5-(1-methyl-3-(trifluoromethyl)-1H-pyrazol-4-yl)-3,4-dihydroisoquinolin-1(2H)-one], for which the GI50 in experiment [1] (setting [3]) is less than 20 nM. Moreover, the inhibitory constant (Ki) in experiment [2] (setting [4]) is less than 0.02 nM.
The like results for `COc1cc2ncnc(N3CCc4c(cc(Cn5ccnc5)cc4-c4cn(C)nc4C(F)(F)F)C3=O)c2cc1OC` [Example 24, 7-((1H-Imidazol-1-yl)methyl)-2-(6,7-dimethoxyquinazolin-4-yl)-5-(1-methyl-3-(trifluoromethyl)-1H-pyrazol-4-yl)-3,4-dihydroisoquinolin-1(2H)-one] were, in that order, 25 nM and less than 0.02 nM.
The like results for `COc1cc2c(nc1C)CCCC2N1CCc2c(cc(Cn3ccnc3)cc2-c2cn(C)nc2C(F)(F)F)C1=O` (stereo not shown) [Example 22, 7-((1H-Imidazol-1-yl)methyl)-2-(3-methoxy-2-methyl-5,6,7,8-tetrahydroquinolin-5-yl)-5-(1-methyl-3-(trifluoromethyl)-1H-pyrazol-4-yl)-3,4-dihydroisoquinolin-1(2H)-one] were, in that order, less than 20 nM and less than 0.02 nM.
`CCc1cc(C2CCOCC2)c2nccc(N3CCc4c(cc(Cn5ccnc5)cc4-c4cn(C)nc4C(F)(F)F)C3=O)c2c1` [Compound B-36]: the GI50 in experiment [1] (MV4;11 cells, read-out: GI50 for additional WDR5 inhibitor compounds on cellular proliferation of MV4;11 human cancer cell lines) came to 23 nM. Also, the inhibition constant Ki in experiment [2] (read-out: Ki for additional WDR5 inhibitor compounds for Inhibition of WDR5 by TR-FRET assay) was less than 0.02 nM.
In the case of `CCc1cc2c(N3CCc4c(cc(Cn5ccnc5)cc4-c4cn(C)nc4C(F)(F)F)C3=O)ccnc2c(COC)n1` [Example 52, 7-((1H-Imidazol-1-yl)methyl)-2-(6-ethyl-8-(methoxymethyl)-1,7-naphthyridin-4-yl)-5-(1-methyl-3-(trifluoromethyl)-1H-pyrazol-4-yl)-3,4-dihydroisoquinolin-1(2H)-one], in experiment [1] (setting [3]), the GI50 worked out at 80 nM. Further, the inhibitory constant (Ki) in experiment [2] (setting [4]) was determined as 0.03 nM.
Consider `CCc1cc2c(N3CCc4c(cc(Cn5ccnc5)cc4-c4cn(C)nc4C(F)(F)F)C3=O)ccnc2c(C(=O)NC)n1` [Example 20, 4-(7-((1H-Imidazol-1-yl)methyl)-5-(1-methyl-3-(trifluoromethyl)-1H-pyrazol-4-yl)-1-oxo-3,4-dihydroisoquinolin-2(1H)-yl)-6-ethyl-N-methyl-1,7-naphthyridine-8-carboxamide], for which the GI50 in experiment [1] (setting [3]) came out at 290 nM. Also, the Ki in experiment [2] (setting [4]) is less than 0.02 nM.
The like results for `CCOc1cc2ncnc(N3CCc4c(cc(Cn5ccnc5)cc4-c4cn(C)nc4C(F)(F)F)C3=O)c2cc1OC` [Example 29, 7-((1H-Imidazol-1-yl)methyl)-2-(7-ethoxy-6-methoxyquinazolin-4-yl)-5-(1-methyl-3-(trifluoromethyl)-1H-pyrazol-4-yl)-3,4-dihydroisoquinolin-1(2H)-one] were, in that order, 164 nM and 0.032 nM.

In general, Ki refers to the equilibrium dissociation constant of an inhibitor or competing ligand from its target.

Values taken from patent US20240262822A1, “WDR5 INHIBITORS AND MODULATORS” (Vanderbilt University, priority 2021, published 2024).
